Results on five molecules are retold here after patent publication US7517849B1, “Inhibition of ABC transporters by transmembrane domain analogs” (priority 1999, dated 2009).

Series [1] has as its system Human colon cancer cells HCT15. Kind of series: Sensitisation of HCT15 cells to adriamycin, sulforhodamine B toxicity assay. The class given is cell-based. The following applies: HCT-15, 96 h, four days, without analog.
The target in a further series is T1, human P-gp (Homo sapiens, UniProt P08183).
T1 construct: P-gp-expressing KB 8-5 cells were trypsinized; endogenous in cells; host or cells: KB 8-5 cells
T1 sequence (P08183 whole entry): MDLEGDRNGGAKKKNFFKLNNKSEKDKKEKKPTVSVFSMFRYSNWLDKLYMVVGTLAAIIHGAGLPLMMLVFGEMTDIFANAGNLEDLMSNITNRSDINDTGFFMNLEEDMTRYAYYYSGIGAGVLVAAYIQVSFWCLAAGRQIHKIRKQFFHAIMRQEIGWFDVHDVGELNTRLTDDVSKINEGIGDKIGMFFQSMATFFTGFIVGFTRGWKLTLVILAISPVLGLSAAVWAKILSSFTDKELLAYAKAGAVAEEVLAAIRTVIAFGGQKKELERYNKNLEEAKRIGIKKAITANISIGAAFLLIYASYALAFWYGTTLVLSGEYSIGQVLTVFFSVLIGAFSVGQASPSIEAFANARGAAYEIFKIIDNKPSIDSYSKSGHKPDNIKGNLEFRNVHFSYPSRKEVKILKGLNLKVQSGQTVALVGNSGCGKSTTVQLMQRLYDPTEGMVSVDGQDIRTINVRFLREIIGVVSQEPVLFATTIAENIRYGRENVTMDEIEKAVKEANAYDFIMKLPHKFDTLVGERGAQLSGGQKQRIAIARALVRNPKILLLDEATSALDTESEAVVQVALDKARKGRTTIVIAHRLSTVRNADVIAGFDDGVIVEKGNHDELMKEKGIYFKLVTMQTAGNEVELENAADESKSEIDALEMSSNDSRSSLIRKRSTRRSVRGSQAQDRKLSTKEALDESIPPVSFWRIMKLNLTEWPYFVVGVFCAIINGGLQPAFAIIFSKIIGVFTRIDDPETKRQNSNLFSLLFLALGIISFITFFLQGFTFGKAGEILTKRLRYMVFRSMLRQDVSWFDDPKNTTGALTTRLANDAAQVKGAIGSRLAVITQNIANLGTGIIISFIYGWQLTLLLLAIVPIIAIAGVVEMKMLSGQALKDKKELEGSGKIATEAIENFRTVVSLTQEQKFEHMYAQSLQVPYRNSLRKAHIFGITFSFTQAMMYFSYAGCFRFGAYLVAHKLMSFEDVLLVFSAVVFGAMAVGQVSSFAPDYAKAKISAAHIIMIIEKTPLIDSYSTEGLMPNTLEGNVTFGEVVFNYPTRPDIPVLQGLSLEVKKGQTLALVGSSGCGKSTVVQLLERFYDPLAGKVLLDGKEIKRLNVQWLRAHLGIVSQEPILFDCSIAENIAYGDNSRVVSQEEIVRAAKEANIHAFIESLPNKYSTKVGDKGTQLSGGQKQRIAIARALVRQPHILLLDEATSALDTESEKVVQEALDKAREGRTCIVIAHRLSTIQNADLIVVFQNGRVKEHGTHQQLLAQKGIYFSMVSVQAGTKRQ
Briefly: Fluorogenic substrate (rhodamine 123) accumulation/efflux assay by FACS in P-gp-expressing KB 8-5 cells. Format: cell-based. On the procedure:
The activity of the antagonists was tested in KB 8-5 cells which express human P-gp (described in Hrycyna et al.; Biochemistry 37:13660-73 (1998)). Analyses of P-gp transport activity were conducted by fluorogenic substrate accumulation assays utilizing fluorescence activated cell sorting (FACS) analysis, as described in Dey, S. et al., Biochemistry 38:6630-9 (1999). […] In initial screens, […] stock solutions of TM peptides in DMSO were diluted in medium to give 10-50 μM solutions. Active compounds were then tested at progressively lower concentrations.
P-gp-expressing KB 8-5 cells were trypsinized, washed with 15 mL Iscove's modified Dulbecco's medium (IMEM), supplemented with 5% fetal bovine serum (FBS), and resuspended in the same medium. […] After the incubation, the cells were pelleted by centrifugation at 200×g and incubated further in their respective rhodamine-free media (+/−TM peptide) for an additional 45 min at 37° C. in the dark. Cells were then pelleted and resuspended in 400 μL of phosphate-buffered saline without Ca+2 or Mg+2 and immediately analyzed by fluorescence activated cell sorting (FACS).
Incubations of KB 8-5 cells were carried out as described in the previous Example, except that varying concentrations of the analog called TM 6 (see Example 4, supra) were used as the TM polypeptide.
For orientation: A flow cytometer gives signals particle by particle.

Series [2] concerns the target human P-glycoprotein (product of MDR1 gene) (human, UniProt P08183 1-1280). Kind of series: cell-based or functional assay.

Like-named read-outs stand apart in the source and are kept apart here. Where no end group is shown, it is not given here.

Chain of human P-glycoprotein (product of MDR1 gene) (P08183 whole entry S893A): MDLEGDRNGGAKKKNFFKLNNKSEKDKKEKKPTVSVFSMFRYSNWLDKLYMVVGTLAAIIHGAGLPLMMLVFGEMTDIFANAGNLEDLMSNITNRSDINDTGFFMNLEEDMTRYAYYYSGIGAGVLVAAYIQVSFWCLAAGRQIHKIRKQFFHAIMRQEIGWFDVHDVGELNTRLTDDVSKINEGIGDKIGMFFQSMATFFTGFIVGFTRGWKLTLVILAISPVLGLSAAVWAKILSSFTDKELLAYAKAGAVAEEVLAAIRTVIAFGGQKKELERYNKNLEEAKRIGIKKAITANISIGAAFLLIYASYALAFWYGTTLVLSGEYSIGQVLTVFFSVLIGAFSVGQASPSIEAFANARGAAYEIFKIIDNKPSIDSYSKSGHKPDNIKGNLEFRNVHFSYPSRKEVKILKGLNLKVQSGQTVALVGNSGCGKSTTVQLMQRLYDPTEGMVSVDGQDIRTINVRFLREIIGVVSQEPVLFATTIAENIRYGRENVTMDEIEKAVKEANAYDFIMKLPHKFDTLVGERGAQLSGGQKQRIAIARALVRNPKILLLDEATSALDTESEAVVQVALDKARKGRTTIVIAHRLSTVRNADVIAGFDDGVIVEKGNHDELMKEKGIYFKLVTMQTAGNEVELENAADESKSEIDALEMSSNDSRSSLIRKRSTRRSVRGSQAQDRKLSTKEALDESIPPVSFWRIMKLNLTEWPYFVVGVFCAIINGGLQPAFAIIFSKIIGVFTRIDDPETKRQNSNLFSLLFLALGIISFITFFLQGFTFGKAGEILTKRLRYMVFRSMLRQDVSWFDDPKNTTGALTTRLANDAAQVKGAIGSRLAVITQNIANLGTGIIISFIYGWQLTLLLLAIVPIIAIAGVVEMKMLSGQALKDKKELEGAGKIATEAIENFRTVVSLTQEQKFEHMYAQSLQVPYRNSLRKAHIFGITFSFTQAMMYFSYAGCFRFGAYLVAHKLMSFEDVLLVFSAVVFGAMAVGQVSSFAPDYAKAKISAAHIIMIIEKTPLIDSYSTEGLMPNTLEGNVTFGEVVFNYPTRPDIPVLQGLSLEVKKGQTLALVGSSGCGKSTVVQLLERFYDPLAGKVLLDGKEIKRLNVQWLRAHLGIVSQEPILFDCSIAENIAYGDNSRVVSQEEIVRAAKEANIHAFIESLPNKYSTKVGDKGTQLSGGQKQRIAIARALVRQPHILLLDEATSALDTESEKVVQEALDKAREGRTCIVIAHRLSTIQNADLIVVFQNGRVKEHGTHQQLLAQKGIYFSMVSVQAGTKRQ

In general, IC50 refers to the concentration that gives 50% inhibition. `COc1cccc2c1C(=O)c1c(O)c3c(c(O)c1C2=O)C[C@@](O)(C(=O)CO)C[C@@H]3O[C@H]1C[C@H](N)[C@H](O)[C@H](C)O1` [adriamycin]: in series [1], the IC50 was 150 ± 10 nM. Take DSGEYSIGQVLTVFFSVLIGAFSV [TM peptide 6]: on human P-gp (5 μM TM peptide, KB 8-5 cells, 0.5 μg/mL rhodamine 123, FACS), the “inhibition of rhodamine efflux” value was “inhibited rhodamine efflux”. In addition, the “activity as inhibitor of the MDR1 ABC transporter (in words)” value (“activity as inhibitor” for short) at human P-gp (cells expressing MDR1, efflux of substrates) is given as “most active”. Also, the “inhibitory power compared with cyclosporin A” value against human P-gp (positive control 5 μM cyclosporin A, KB 8-5 cells) is given as “not as powerful an inhibitor as cyclosporin A”. For the same molecule, the “dose/response inhibition of P-gp” value on human P-gp (varying concentrations, KB 8-5 cells, rhodamine 123 efflux) is “inhibited P-gp in a dose dependent manner”. In the case of “ISIGAAFLLIYASYALAFWYGTTDD-OH [TM5 Analog 1]”, the “activity as inhibitor” value at human P-gp is reported as “active”. As for “LLIYASYALAFWYGTTLVLSGEGSSG-OH [TM5 analog]”, on human P-gp, the “activity as inhibitor” value is listed as “strongest inhibitor of the MDR1 ABC transporter yet tested” and the “inhibition of rhodamine 123 efflux compared with 5 micromolar cyclosporin” value is reported as “same degree of inhibition of rhodamine 123 efflux from MDR1 expressing cells as 5 micromolar cyclosporin”. With DSGEYSIGQVLTVFFSVLIGAFSV [TM6 analog of MDR1 (synthetic peptide), Analog 1], in series [2], the “IC50 of adriamycin (sulforhodamine B toxicity assay, HCT15 cells) in the presence of 1 µM TM6” value is 80 nM.
